According to the supplement of paper PMC10307832:

Legend:
Assay in all cases: relative viability (nuclei count vs DMSO), 5 days (fraction); higher = more cells survive
Salubrinal = compound: O=C(/C=C/c1ccccc1)NC(NC(=S)Nc1cccc2cccnc12)C(Cl)(Cl)Cl [Salubrinal]
Method in brief: (§1)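 Hoechst staining, done together with fixation and permeabilisation, marked nuclei for 4× imaging and MetaXpress counting. This followed 5 days without medium change after lung cancer cell lines, kept overnight at 37 °C in 1536-well plates, were pinned with five library-drug doses (not always all listed) spaced by √10 on vehicle-anchored plates. Viability is the ratio of treated-well to vehicle-well nuclei, expressed as a median across plates. Plates passed only at control CV below 25% with at least one doubling.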

[1] = compound: Cc1ccc2nc(NCCN)c3ncc(C)n3c2c1
Method in brief: as §1

Salubrinal + Pemetrexed = compound: O=C(/C=C/c1ccccc1)NC(NC(=S)Nc1cccc2cccnc12)C(Cl)(Cl)Cl [Salubrinal] + Nc1nc2[nH]cc(CCc3ccc(C(=O)N[C@@H](CCC(=O)O)C(=O)O)cc3)c2c(=O)[nH]1 [Pemetrexed] (partner 0.2 µM)
Method in brief: (§2)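 Values are medians from duplicate plates. Each reflects relative viability, defined as the nuclei count of treated wells over that of vehicle wells. Lung cancer cell lines in 1536-well plates were pin-tool dosed one day after seeding with one drug alone or with a fixed anchor-drug dose plus five library-drug doses (not always all listed) in √10 steps, then fixed, stained and imaged at 4× after 5 days.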

[2] = compound: Cc1ccc2nc(NCCN)c3ncc(C)n3c2c1 + COc1cccc2cc(-c3nc([C@H]4CC[C@H](C(=O)O)CC4)n4ncnc(N)c34)[nH]c12 [OSI-027] (partner 0.5 µM)
Method in brief: as §2

| Cell Line | relative viability (Salubrinal; 0.08 µM) | relative viability (Salubrinal; 0.253 µM) | relative viability (Salubrinal; 0.8 µM) | relative viability (Salubrinal; 2.53 µM) | relative viability (Salubrinal; 8 µM) | relative viability ([1]; 0.04 µM) | relative viability ([1]; 0.1265 µM) | relative viability ([1]; 0.4 µM) | relative viability ([1]; 1.265 µM) | relative viability ([1]; 4 µM) | relative viability (Salubrinal + Pemetrexed; first compound 0.08 µM) | relative viability (Salubrinal + Pemetrexed; first compound 0.253 µM) | relative viability (Salubrinal + Pemetrexed; first compound 0.8 µM) | relative viability (Salubrinal + Pemetrexed; first compound 2.53 µM) | relative viability (Salubrinal + Pemetrexed; first compound 8 µM) | relative viability ([2]; first compound 0.04 µM) | relative viability ([2]; first compound 0.1265 µM) | relative viability ([2]; first compound 0.4 µM) | relative viability ([2]; first compound 1.265 µM) | relative viability ([2]; first compound 4 µM) |
| --- | --- | --- | --- | --- | --- | --- | --- | --- | --- | --- | --- | --- | --- | --- | --- | --- | --- | --- | --- | --- |
| 201T | 1.03 | 0.869 | 1.12 | 1.02 | 0.983 | 1.03 | 0.993 | 0.978 | 1.04 | 0.948 | 0.356 | 0.321 | 0.403 | 0.318 | 0.364 | 0.863 | 0.586 | 0.761 | 0.805 | 0.64 |
| A549 | 1.2 | 0.855 | 1.03 | 0.99 | 0.924 | 1.09 | 0.927 | 1.01 | 0.958 | 0.879 | – | – | – | – | – | – | – | – | – | – |
| A-427 | 1.06 | 0.973 | 1.12 | 0.965 | 1.08 | 1.01 | 1.01 | 0.968 | 1.05 | 0.95 | 0.957 | 0.964 | 1.17 | 1.03 | 1.1 | 0.499 | 0.408 | 0.488 | 0.49 | 0.451 |
| ABC-1 | 0.978 | 0.909 | 0.902 | 1.01 | 0.849 | 0.987 | 1.01 | 0.97 | 1.04 | 0.822 | – | – | – | – | – | 0.595 | 0.559 | 0.564 | 0.439 | 0.484 |
| BEN | 1.07 | 0.961 | 1.07 | 1.15 | 0.976 | 1.07 | 0.931 | 0.93 | 1.03 | 1.04 | 0.744 | 0.753 | 0.971 | 0.846 | 0.791 | 0.316 | 0.291 | 0.328 | 0.276 | 0.324 |
| CAL-12T | 1.09 | 0.956 | 1.08 | 1.03 | 0.888 | 0.984 | 0.981 | 0.976 | 1.02 | 0.91 | 1.4 | 0.754 | 1.46 | 1.07 | 1.21 | 0.798 | 0.572 | 0.824 | 0.76 | 0.52 |
| COR-L23 | 1.11 | 1.1 | 1.06 | 0.966 | 0.95 | 1.05 | 1.04 | 0.964 | 0.994 | 0.994 | 0.203 | 0.205 | 0.194 | 0.206 | 0.196 | 0.911 | 0.764 | 0.777 | 0.729 | 0.61 |
| COR-L 105 | 0.93 | 0.895 | 0.94 | 0.88 | 0.83 | 0.997 | 0.864 | 0.955 | 1.05 | 0.801 | 1.25 | 0.831 | 1.24 | 1.04 | 1.09 | 0.79 | 0.753 | 0.666 | 0.691 | 0.723 |
| Calu-6 | 1.17 | 0.925 | 1.01 | 0.981 | 0.936 | 1.03 | 0.986 | 0.974 | 1.02 | 0.854 | – | – | – | – | – | – | – | – | – | – |
| ChaGo-K-1 | 1.05 | 0.912 | 1.15 | 1.01 | 0.922 | 0.958 | 1.01 | 1.05 | 1.01 | 0.874 | 0.266 | 0.274 | 0.241 | 0.253 | 0.375 | 0.601 | 0.586 | 0.601 | 0.475 | 0.419 |
| EBC-1 | 1.02 | 0.923 | 1.12 | 0.887 | 0.902 | 1.08 | 0.976 | 0.934 | 0.946 | 0.79 | – | – | – | – | – | – | – | – | – | – |
| EKVX | 1.04 | 0.837 | 1.01 | 1.06 | 1.04 | 1.07 | 0.889 | 0.992 | 0.948 | 0.826 | 0.411 | 0.361 | 0.444 | 0.385 | 0.325 | 0.754 | 0.688 | 0.658 | 0.71 | 0.617 |
| EMC-BAC-2 | 0.934 | 1.06 | 1.25 | 0.996 | 0.973 | 1 | 1 | 0.966 | 1.08 | 0.946 | 0.42 | 0.441 | 0.459 | 0.473 | 0.478 | 0.387 | 0.381 | 0.344 | 0.394 | 0.377 |
| EPLC-272H | 0.917 | 0.884 | 1.07 | 0.98 | 0.765 | 1.01 | 1.13 | 0.992 | 1 | 0.835 | 0.255 | – | 0.363 | 0.342 | 0.294 | 0.366 | 0.296 | 0.32 | 0.346 | 0.317 |
| H3255 | 1.07 | 0.965 | 1.11 | 0.958 | 0.949 | 1.02 | 0.9 | 0.886 | 1.06 | 0.843 | 0.562 | 0.582 | 0.558 | 0.557 | 0.604 | 0.663 | 0.588 | 0.592 | 0.522 | 0.541 |
| HARA | 1 | 0.956 | 1.02 | 0.908 | 1.17 | 0.913 | 0.956 | 0.928 | 0.843 | 0.973 | 0.254 | 0.285 | 0.327 | 0.273 | 0.254 | 0.488 | 0.505 | 0.233 | 0.459 | 0.553 |
| HCC-15 | 1.13 | 0.93 | 1.14 | 1.08 | 0.963 | 1 | 1.09 | 0.907 | 0.916 | 0.86 | 0.205 | 0.266 | 0.234 | 0.231 | 0.211 | 0.708 | 0.807 | 0.544 | 0.659 | 0.581 |
| HCC-44 | 0.952 | 0.97 | 1.07 | 1.02 | 0.973 | 0.976 | 0.945 | 0.963 | 0.972 | 0.914 | 0.641 | 0.708 | 0.66 | 0.698 | 0.662 | 0.49 | 0.451 | 0.448 | 0.631 | 0.384 |
